Test results published in patent US6949255B2, “Inhibitory chemical formulation with preservative system” (priority 2000, dated 2005).

Tests used:
[1] = tested on: L-929 cells
[2] = tested on: VSV; type: cell-based, vesicular stomatitis virus
[3] = tested on: vesicular stomatitis virus (VSV); type: cell-based
[4] = tested on: HIV; conditions: among prostitutes; Kreiss et al., JAMA 1992; cited from earlier work

Compound	L-929 toxicity titer ([1]; mouse)	concentrations at which toxicity activity was absent ([1]; mouse)	concentrations at which inhibitory activity was absent [2]	inhibition of VSV [2]	killing of L-929 cells (toxicity titer) ([1]; mouse)	killing of L-929 cells [1]	inhibition of multiplication of VSV [3]	risk of HIV infection with use [4]
CCCOC(=O)c1ccc(O)cc1 [Proplyparaben, propylparaben]	approximately 15 fold	< 0.004%	< 0.004%	approximately 55 fold				
COC(=O)c1ccc(O)cc1 [Methylparaben]		< 0.2%		approximately 30 fold	greater than 300 fold			
CC(O)CO (centres unmarked) [Propylene G, propylene glycol]				almost no inhibition		almost no inhibition or killing at all		
Nonoxynol-9 [Nonoxynol-9®]							almost identical degree of inhibition	increased risk of HIV infection
OCC(O)CO [glycerol]		below 8%	below 8%	greater than 10 fold				
